# In PubChem BioAssay AID2060325 (Molecular Pharmacology Branch, DTP, NCI, 2025):
# System: SK-OV-3 multi-cell spheroids, viability
# Test: Anticancer human tumor SK-OV-3 cell line growth inhibition [IpAb];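 on viability, T/C: viability read after seven days of drug exposure; percent of DMSO vehicle control luminescence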
# Settings: for IC50: curve of first compound; for viability, T/C: stronger effect = lower value
# Source text: Combinatorial screen of targeted agents with ipatasertib and abemaciclib in multi-cell type tumor spheroids
# A high-throughput screen of multi-cell type tumor spheroids was designed to identify active combinations of targeted small molecules and ipatasertib or abemaciclib. Complex spheroids include a stromal component modeled by human endothelial cells (HUVEC) and fibroblasts modeled by human mesenchymal stem cells (MSCs). The concentration ranges selected for each drug and investigational agent were based upon clinically achievable concentrations if the clinical Cmax of the agent was known.
# Compounds. The drugs and investigational agents: ipatasertib (NSC767898), abemaciclib(NSC768073), selumetinib (NSC741078), trametinib (758246), adavosertib (NSC754352), everolimus (NSC733504), sapanisertib (NSC764658), vemurafenib (NSC761431), venetoclax (NSC766270), copanlisib (NSC809693), apelisib (NSC765974), palbociblib (NSC758247), vemurafenib (NSC761431), dabrafenib (NSC764134), ravoxertinib (NSC781343), BMS-387032 (NSC767048), sotorasib (NSC818433), talazoparib (NSC767125) and afursertib (NSC778305), were obtained from the National Cancer Institute (NCI) Developmental Therapeutics Program Chemical Repository. The FDA-approved anticancer drug set is available from the NCI Developmental Therapeutics Program. […] The stock solutions were prepared in dimethyl sulfoxide (DMSO, Sigma-Aldrich, St. Louis, MO, cat. D2650) at 800-fold the tested concentration and stored at -70 degrees C prior to their use. All drugs and investigational agents were tested over a range starting from a high concentration at or near the clinical Cmax and decreasing in half-log increments. If the clinical Cmax for an agent had not been determined, the highest concentration tested was 10 microM.
# NCI60 Cell Culture. NCI60 cell lines were obtained from the NCI Developmental Therapeutics Program Tumor Repository. For each lot of cells, the Repository performed Applied Biosystems AmpFLSTR Identifiler testing with PCR amplification to confirm consistency with the published Identifier STR profile for each cell line. Cells were kept in continuous culture for no more than 20 passages. The optimal seeding densities for each of the cell lines at each time point assessed were determined prior to performing the concentration response studies. Briefly, the NCI60 human tumor lines were grown as monolayers in RPMI 1640 medium supplemented with 10% FBS and 2 mmol/L L-glutamine.
# An additional 9 lines were from the NCI60 cell line panel including MDA-MB-231 breast carcinoma, MDA-MB-468 breast carcinoma, MCF7 breast carcinoma, Hs578T breast carcinoma, MALME-3M melanoma, SK-MEL-2 melanoma, SK-OV-3 ovarian carcinoma, DU-145 prostate carcinoma, PC-3 prostate carcinoma, all cell lines along with major genetic alterations are listed on Table 2. Pooled donor human umbilical vein endothelial cells (HUVEC, Lonza, cat. CC-2519) and human mesenchymal stem cells (hMSC, Lonza, cat. PT-2501) were purchased from Lonza (Walkersville, MD).
# PDMR cell lines were grown in complete medium (DC medium): Dulbecco's modified Eagle's medium (DMEM)/F12 supplemented with 5% fetal bovine serum (FBS), 2 mM L-glutamine, 100 U/mL penicillin and 100 µg/ml streptomycin, 0.4 µg/ml hydrocortisone, 10 ng/ml epidermal growth factor (EGF) recombinant human protein, 24 µg/mL adenine, and 0.1 mg/mL primocin. During culture from frozen stock vials, PDMR cells were cultured in the same medium containing 10 µM Y-27632 (see Table 3). The PDCs were cultured in complete DMEM/F12 media without 10 microM Y-27632 dihydrochloride for at least two passages prior to the screen. The pooled donor HUVEC and hMSC were cultured in endothelial cell growth medium 2 (PromoCell, Heidelberg, Germany, cat. C-22011) and mesenchymal stem cell growth medium 2 (PromoCell, cat. C-28009), respectively. For all experiments, HUVEC and hMSC were used at passages </=5.
# […]
# [1] = second compound 0.1 µM, first compound 0.0316 µM
# [2] = second compound 0.1 µM, first compound 0.1 µM
# [3] = second compound 0.316 µM, first compound 0.0316 µM
# [4] = second compound 0.316 µM, first compound 0.1 µM
# [5] = second compound 1 µM, first compound 0.0316 µM
# [6] = second compound 1 µM, first compound 0.1 µM
# [7] = second compound 3.16 µM, first compound 0.0316 µM
# [8] = second compound 3.16 µM, first compound 0.1 µM
# [9] = second compound 10 µM, first compound 0.0316 µM
# [10] = second compound 10 µM, first compound 0.1 µM
# [11] = second compound 0.1 µM, first compound 0.316 µM
# [12] = second compound 0.1 µM, first compound 1 µM
# [13] = second compound 0.1 µM, first compound 3.16 µM
# [14] = second compound 0.1 µM, first compound 10 µM
# [15] = second compound 0.316 µM, first compound 0.316 µM
# [16] = second compound 0.316 µM, first compound 1 µM
# [17] = second compound 0.316 µM, first compound 3.16 µM
# [18] = second compound 0.316 µM, first compound 10 µM
# [19] = second compound 1 µM, first compound 0.316 µM
# [20] = second compound 1 µM, first compound 1 µM
# [21] = second compound 1 µM, first compound 3.16 µM
# [22] = second compound 1 µM, first compound 10 µM
# [23] = second compound 3.16 µM, first compound 0.316 µM
# [24] = second compound 3.16 µM, first compound 1 µM
# [25] = second compound 3.16 µM, first compound 3.16 µM
# [26] = second compound 3.16 µM, first compound 10 µM
# [27] = second compound 10 µM, first compound 0.316 µM
# [28] = second compound 10 µM, first compound 1 µM
# [29] = second compound 10 µM, first compound 3.16 µM
# [30] = second compound 10 µM, first compound 10 µM
Structure (SMILES),IC50 (second compound 0.1 µM),IC50 (second compound 0.316 µM),IC50 (second compound 1 µM),IC50 (second compound 3.16 µM),IC50 (second compound 10 µM),"viability, T/C [1]","viability, T/C [2]","viability, T/C [3]","viability, T/C [4]","viability, T/C [5]","viability, T/C [6]","viability, T/C [7]","viability, T/C [8]","viability, T/C [9]","viability, T/C [10]","viability, T/C [11]","viability, T/C [12]","viability, T/C [13]","viability, T/C [14]","viability, T/C [15]",other results
CC(C)n1nc(-c2ccc3oc(N)nc3c2)c2c(N)ncnc21 + CC(C)NCC(C(=O)N1CCN(c2ncnc3c2C(C)CC3O)CC1)c1ccc(Cl)cc1,0.623 nM,< 0.316 nM,< 0.316 nM,< 0.316 nM,< 0.316 nM,8.65%,6.5%,5.66%,4.86%,4.57%,4.78%,3.82%,3.94%,2.31%,3.23%,,,,,,"viability, T/C (second compound 0.1 µM, first compound 0.000316 µM): 59.2%; viability, T/C (second compound 0.1 µM, first compound 0.001 µM): 43.4%; viability, T/C (second compound 0.1 µM, first compound 0.00316 µM): 26.4%; viability, T/C (second compound 0.1 µM, first compound 0.01 µM): 13.7%; viability, T/C (second compound 0.316 µM, first compound 0.000316 µM): 32%; viability, T/C (second compound 0.316 µM, first compound 0.001 µM): 24.6%; viability, T/C (second compound 0.316 µM, first compound 0.00316 µM): 19.7%; viability, T/C (second compound 0.316 µM, first compound 0.01 µM): 9.18%; viability, T/C (second compound 1 µM, first compound 0.000316 µM): 18.7%; viability, T/C (second compound 1 µM, first compound 0.001 µM): 14.1%; viability, T/C (second compound 1 µM, first compound 0.00316 µM): 12%; viability, T/C (second compound 1 µM, first compound 0.01 µM): 7.26%; viability, T/C (second compound 3.16 µM, first compound 0.000316 µM): 14.5%; viability, T/C (second compound 3.16 µM, first compound 0.001 µM): 12.7%; viability, T/C (second compound 3.16 µM, first compound 0.00316 µM): 9.97%; viability, T/C (second compound 3.16 µM, first compound 0.01 µM): 5.51%; viability, T/C (second compound 10 µM, first compound 0.000316 µM): 8.69%; viability, T/C (second compound 10 µM, first compound 0.001 µM): 9.03%; viability, T/C (second compound 10 µM, first compound 0.00316 µM): 6.95%; viability, T/C (second compound 10 µM, first compound 0.01 µM): 3.56%"
CC1(C)CCC(CN2CCN(c3ccc(C(=O)NS(=O)(=O)c4ccc(NCC5CCOCC5)c([N+](=O)[O-])c4)c(Oc4cnc5[nH]ccc5c4)c3)CC2)=C(c2ccc(Cl)cc2)C1 + CC(C)NCC(C(=O)N1CCN(c2ncnc3c2C(C)CC3O)CC1)c1ccc(Cl)cc1,3200 nM,< 31.6 nM,< 31.6 nM,< 31.6 nM,< 31.6 nM,64.3%,70.6%,33.6%,38.2%,21.1%,27.3%,15.5%,15.3%,7.25%,9.06%,68%,58.6%,51.2%,26.1%,31.7%,"viability, T/C [16]: 31.6%; viability, T/C [17]: 28%; viability, T/C [18]: 18.6%; viability, T/C [19]: 21.6%; viability, T/C [20]: 18.9%; viability, T/C [21]: 17%; viability, T/C [22]: 13.7%; viability, T/C [23]: 14.2%; viability, T/C [24]: 13.9%; viability, T/C [25]: 11.1%; viability, T/C [26]: 7.06%; viability, T/C [27]: 8.25%; viability, T/C [28]: 6.89%; viability, T/C [29]: 5.18%; viability, T/C [30]: 4.58%"
CCCS(=O)(=O)Nc1ccc(F)c(C(=O)c2c[nH]c3ncc(-c4ccc(Cl)cc4)cc23)c1F + CC(C)NCC(C(=O)N1CCN(c2ncnc3c2C(C)CC3O)CC1)c1ccc(Cl)cc1,4770 nM,< 31.6 nM,< 31.6 nM,< 31.6 nM,< 31.6 nM,70.2%,74.1%,38.8%,36.5%,20.5%,22.4%,17.1%,18.6%,8.73%,9.5%,67.5%,73.9%,64.3%,23.3%,38.1%,"viability, T/C [16]: 36.1%; viability, T/C [17]: 28.2%; viability, T/C [18]: 13.9%; viability, T/C [19]: 21.3%; viability, T/C [20]: 17.9%; viability, T/C [21]: 15.3%; viability, T/C [22]: 6.91%; viability, T/C [23]: 15.7%; viability, T/C [24]: 15.7%; viability, T/C [25]: 15.1%; viability, T/C [26]: 6.79%; viability, T/C [27]: 9.69%; viability, T/C [28]: 8.84%; viability, T/C [29]: 9.71%; viability, T/C [30]: 2.52%"
